The record followed here is publication PMC12000251, “Evaluation of the Anti-Inflammatory Effects of Novel Fatty Acid-Binding Protein 4 Inhibitors in Microglia” (Journal of Neuroimmune Pharmacology, 2025).

Each structure is given as a SMILES string. Where only a bound is given, the exact number is not on record here.

The target of series [1] is T1, Recombinantly-expressed human FABP4 (Homo sapiens, UniProt P15090).
T1 construct: made in house
In words: Isothermal titration calorimetry (ITC) binding affinity to FABP4. Particulars: one-site binding model, read-out: KD (ITC titration of FABP4, Figure S1). The method, then:
A prior fragment screen identified a series of bi-aryl sulfonamides that bound to FABP4. Analogues of this chemical sulfonamide scaffold were then purchased, which led to the identification of the compounds used in this study (MFP-0011462, MFP-0012314, MFP-0012318, and MFP-0012328). Their predicted LogP and tPSA values were calculated in Vortex v2020.1.117658-s (Dotmatics, Boston, MA). The binding affinity of these four compounds was characterised by isothermal titration calorimetry (ITC). ITC was carried out using an iTC200 microcalorimeter (MicroCal, United Kingdom) with a coin shaped sample cell (201.4 μL) with stirring at 1000 rpm at 25°C. Titrations were performed in an ITC buffer (50 mM sodium phosphate, 50 mM NaCl, pH 7.4 with 2% DMSO). Compounds were diluted from concentrated stocks in ITC buffer and loaded into the titration syringe at a concentration of 1 mM, with a final DMSO concentration of 2% (v/v). Recombinantly-expressed human FABP4 was prepared as described previously (Lee et al. [2015a]) in an identical buffer at a protein concentration of 80 μM and placed in the sample cell. A thermal equilibration step at 25°C was followed by an initial 180 s delay step and subsequently an initial 0.2 μL injection. 16 serial injections of the 1 mM compound solution (2 μL each) were made at intervals of 220 s with continuous stirring of the solution in the sample cell. The iTC200 control software was used to operate and acquire raw data as power (microcalories/sec) vs time (min). The data were processed using the Origin 7.0 software (MicroCal) and the binding affinity (KD) was calculated by fitting the data to a one-site binding model.
Background: Isothermal titration calorimetry measures the heat released or taken up as one component is titrated into another.

Series [2] in a line: 1D 1H NMR aqueous solubility in phosphate buffer. The format is physicochemical. To be noted: kinetic from dmso stock, phosphate buffer pH 7.4 in D2O, 0.1% d6-DMSO, 25 °C, range 3.125–100 µM, read-out: Soluble in phosphate buffer up to (concentration). As to the method: 1D ^1H NMR was employed to determine the solubility limits of the four MFP compounds and BMS309403 in phosphate buffer. This method has been commonly used to determine compound solubility in the drug discovery setting (Devine et al. [2014]; Lee et al. [2015b]; Lin et al. [2009]). A 100 mM of stock solution of each compound was first prepared in d6-DMSO. These stock solutions were then added into phosphate buffer (50 mM sodium phosphate, 25 mM NaCl, 100 µM of DSS, pH 7.4 in D2O) to achieve a final d6-DMSO concentration of 0.1% (v/v) which is equivalent to the DMSO concentration present in BV-2 cell culture experiments. All samples were inspected to note whether visible precipitates were formed. ^1H NMR spectra for all of the samples were acquired using Bruker Avance III 600 MHz spectrometer at 25 °C. Experimental data were acquired using a relaxation delay of 5 s with 128 scans, and water suppression using an excitation sculpting pulse scheme. Mestrelab Research 13.0 software was used to integrate the proton resonances of the compounds. A well-resolved peak (i.e. no overlaps with any other peaks) in the spectrum of each compound was chosen for integration, relative to the DSS peak (at 0 ppm). […] In addition, the chemical shifts of the resonances in the 1D ^1H NMR spectra were monitored.

A further series concerns LPS-activated BV-2 cells. The series can be described thus: RT-qPCR for TNF-α mRNA expression in LPS-activated BV-2 cells. Format: cell-based, mouse. Particulars: 10 µM, 1 µg/mL LPS 24 h. As to the method: BV-2 cells were cultured in DMEM/F-12 media supplemented with 10% (v/v) FBS and 1% (v/v) penicillin/streptomycin, and kept at 37 °C in a humidified incubator ([…], 5% CO2) for all studies. Cells with 80% confluency were used for experiments. At 24 h post-seeding, BV-2 cells were treated with either of the MFP compounds (at concentrations detailed below) or vehicle (0.1% (v/v) DMSO) and 1 µg/mL LPS for a period of 24 h. In some experiments (detailed in Results), BV-2 cells were exposed to MFP compounds for 2 h before a 24 h exposure to LPS and MFP compounds, and in some studies, in the presence of FABP4 siRNA using a 24 h treatment that we have previously employed (Low et al. [2021]). […]
RT-qPCR was performed to determine the amount of TNF-α mRNA following the required cell treatments, as previously described (Low et al. [2020]). […] The concentration and purity of the isolated RNA was assessed using a Thermo Fisher Nanodrop 1000 spectrophotometer (Rockford, IL). […] The threshold cycles (Ct) were automatically calculated using the CFX manager software. […]

T1 sequence (P15090 whole entry): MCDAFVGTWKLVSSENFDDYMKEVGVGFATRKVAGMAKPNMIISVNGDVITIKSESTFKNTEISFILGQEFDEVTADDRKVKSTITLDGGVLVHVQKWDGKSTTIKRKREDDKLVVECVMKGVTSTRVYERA

On to `O=C(O)c1cccc(NS(=O)(=O)c2ccc(Cl)c(Cl)c2)c1` [MFP-0012328], for which, in series [1], the Kd is 316 nM. Besides, in series [2], the solubility was at least 100 µM. The “reduction of TNF-α mRNA levels relative to LPS alone” value in the series with LPS-activated BV-2 cells was determined as 17%.
